Results taken from ChEMBL document CHEMBL1201862, “PubChem BioAssay data set” (2004).
Activity calls are given as the source filed them.

Tests used:
[1] = target: G-protein coupled receptor 55 (Homo sapiens, UniProt Q9Y2T6); assay: inhibition of LPI-stimulated GPR55 beta-arrestin translocation – imaging, U2OS, beta-arrestin-GFP, LPI agonist, primary screen (AID 2013); format: functional;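 further: antagonist potency measured as reduced agonist-driven arrestin aggregation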
[2] = target: T1, Cannabinoid receptor 1 (Homo sapiens, UniProt P21554); assay: SAR analysis of antagonists of the Cannabinoid Receptor 1 using an Image-Based Assay - Set 2. [Related pubchem assays (depositor defined):AID2013, AID2026]; format: functional
T1 sequence (P21554 whole entry): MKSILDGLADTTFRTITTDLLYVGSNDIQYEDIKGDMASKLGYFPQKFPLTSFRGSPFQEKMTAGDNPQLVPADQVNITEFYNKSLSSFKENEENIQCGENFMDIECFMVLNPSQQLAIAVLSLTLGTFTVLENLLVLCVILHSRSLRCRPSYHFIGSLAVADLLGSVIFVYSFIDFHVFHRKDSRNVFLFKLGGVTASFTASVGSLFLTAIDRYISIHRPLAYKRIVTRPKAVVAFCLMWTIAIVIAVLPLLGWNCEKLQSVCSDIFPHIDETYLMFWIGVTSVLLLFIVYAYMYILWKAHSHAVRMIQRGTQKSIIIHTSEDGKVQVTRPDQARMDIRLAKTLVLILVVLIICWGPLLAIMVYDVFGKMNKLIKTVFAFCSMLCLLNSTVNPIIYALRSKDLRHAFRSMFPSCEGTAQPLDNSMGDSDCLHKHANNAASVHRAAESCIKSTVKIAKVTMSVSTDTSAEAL

[3] = target: T2, G-protein coupled receptor 35 (Homo sapiens, UniProt Q9HC97); assay: SAR analysis of Agonists of the GPR35 Receptor using an Image-Based Assay - Set 2. [Related pubchem assays (depositor defined):AID2013, AID2026]; format: functional
T2 sequence (Q9HC97 whole entry): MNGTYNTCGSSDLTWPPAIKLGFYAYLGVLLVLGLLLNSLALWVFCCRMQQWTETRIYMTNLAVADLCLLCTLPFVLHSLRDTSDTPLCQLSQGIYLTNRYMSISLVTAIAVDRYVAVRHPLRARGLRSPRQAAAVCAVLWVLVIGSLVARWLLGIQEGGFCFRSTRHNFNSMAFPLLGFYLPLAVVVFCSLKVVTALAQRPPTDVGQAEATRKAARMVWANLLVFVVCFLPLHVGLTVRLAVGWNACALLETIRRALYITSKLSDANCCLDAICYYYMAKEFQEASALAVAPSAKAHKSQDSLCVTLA

[4] = target: T3, Cannabinoid receptor 2 (Homo sapiens, UniProt P34972); assay: SAR analysis of antagonists of the Cannabinoid Receptor 2 using an Image-Based Assay. [Related pubchem assays (depositor defined):AID2013, AID2026]; format: functional
T3 sequence (P34972 whole entry): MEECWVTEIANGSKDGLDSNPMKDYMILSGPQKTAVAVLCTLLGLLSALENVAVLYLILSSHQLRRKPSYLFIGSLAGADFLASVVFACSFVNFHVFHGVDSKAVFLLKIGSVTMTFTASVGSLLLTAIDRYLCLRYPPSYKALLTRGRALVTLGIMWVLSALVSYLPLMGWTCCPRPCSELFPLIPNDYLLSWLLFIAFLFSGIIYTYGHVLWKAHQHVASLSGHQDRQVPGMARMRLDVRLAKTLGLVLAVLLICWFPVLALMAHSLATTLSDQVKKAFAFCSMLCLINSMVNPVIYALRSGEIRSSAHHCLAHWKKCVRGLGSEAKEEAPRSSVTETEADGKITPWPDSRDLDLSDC

[5] = target: T1, Cannabinoid receptor 1; assay: SAR analysis of agonists of the Cannabinoid Receptor 1 using an Image-Based Assay - Set 2. [Related pubchem assays (depositor defined):AID2013, AID2026]; format: functional
[6] = target: T2, G-protein coupled receptor 35; assay: SAR analysis of Antagonists of the GPR35 Receptor using an Image-Based Assay - Set 3. [Related pubchem assays (depositor defined):AID2013, AID2026]; format: functional
[7] = target: T3, Cannabinoid receptor 2; assay: SAR analysis of agonists of the Cannabinoid Receptor 2 using an Image-Based Assay. [Related pubchem assays (depositor defined):AID2013, AID2026]; format: functional
[8] = target: T4, Leucine aminopeptidase (Plasmodium falciparum 3D7, UniProt Q8IL11); assay: P. falciparum M17LAP inhibitors, primary screen, biochemical, fluorogenic H-Leu-NHMec substrate, 1536-well (AID 1619); format: functional
T4 sequence (Q8IL11 whole entry): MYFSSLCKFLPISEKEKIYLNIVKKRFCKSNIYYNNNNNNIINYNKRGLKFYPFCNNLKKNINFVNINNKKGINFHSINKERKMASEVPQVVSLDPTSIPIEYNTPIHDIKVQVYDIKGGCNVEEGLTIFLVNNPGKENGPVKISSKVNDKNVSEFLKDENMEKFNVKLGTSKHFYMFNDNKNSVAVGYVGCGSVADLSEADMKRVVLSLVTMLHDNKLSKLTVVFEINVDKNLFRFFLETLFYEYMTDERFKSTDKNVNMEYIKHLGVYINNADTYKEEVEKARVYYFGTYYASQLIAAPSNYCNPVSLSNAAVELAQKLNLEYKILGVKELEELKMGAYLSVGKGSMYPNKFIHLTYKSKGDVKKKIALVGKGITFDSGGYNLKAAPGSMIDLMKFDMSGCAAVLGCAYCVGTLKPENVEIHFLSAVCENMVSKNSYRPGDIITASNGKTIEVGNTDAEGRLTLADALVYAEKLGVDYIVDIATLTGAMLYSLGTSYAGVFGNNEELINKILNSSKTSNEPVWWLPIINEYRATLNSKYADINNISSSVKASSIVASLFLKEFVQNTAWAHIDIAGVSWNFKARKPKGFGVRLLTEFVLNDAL

[9] = target: Alkaline phosphatase, placental type (Homo sapiens, UniProt P05187); assay: human placental alkaline phosphatase inhibition – biochemical, luminescence, confirmation (AID 1512); format: functional
Sequence of Alkaline phosphatase, placental type (P05187 whole entry): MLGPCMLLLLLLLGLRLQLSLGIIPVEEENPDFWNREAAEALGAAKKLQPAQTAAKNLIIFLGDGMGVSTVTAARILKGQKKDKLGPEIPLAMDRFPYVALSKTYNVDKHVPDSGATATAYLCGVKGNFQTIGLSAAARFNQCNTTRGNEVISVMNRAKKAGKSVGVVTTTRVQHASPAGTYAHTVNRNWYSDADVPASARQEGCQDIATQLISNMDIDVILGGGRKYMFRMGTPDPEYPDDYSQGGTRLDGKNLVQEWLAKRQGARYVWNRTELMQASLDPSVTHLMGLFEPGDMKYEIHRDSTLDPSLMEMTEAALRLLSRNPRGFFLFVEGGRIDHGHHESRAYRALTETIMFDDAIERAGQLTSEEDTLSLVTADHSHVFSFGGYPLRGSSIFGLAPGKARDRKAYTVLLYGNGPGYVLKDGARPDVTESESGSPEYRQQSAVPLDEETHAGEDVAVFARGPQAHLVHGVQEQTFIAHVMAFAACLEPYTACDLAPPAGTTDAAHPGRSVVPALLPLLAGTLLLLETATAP

[10] = target: T5, Alkaline phosphatase, tissue-nonspecific isozyme (Homo sapiens, UniProt P05186); assay: potency against alkaline phosphatase TNAP – biochemical, luminescent, dose response, SAR follow-up (AID 1056)
T5 sequence (P05186 whole entry): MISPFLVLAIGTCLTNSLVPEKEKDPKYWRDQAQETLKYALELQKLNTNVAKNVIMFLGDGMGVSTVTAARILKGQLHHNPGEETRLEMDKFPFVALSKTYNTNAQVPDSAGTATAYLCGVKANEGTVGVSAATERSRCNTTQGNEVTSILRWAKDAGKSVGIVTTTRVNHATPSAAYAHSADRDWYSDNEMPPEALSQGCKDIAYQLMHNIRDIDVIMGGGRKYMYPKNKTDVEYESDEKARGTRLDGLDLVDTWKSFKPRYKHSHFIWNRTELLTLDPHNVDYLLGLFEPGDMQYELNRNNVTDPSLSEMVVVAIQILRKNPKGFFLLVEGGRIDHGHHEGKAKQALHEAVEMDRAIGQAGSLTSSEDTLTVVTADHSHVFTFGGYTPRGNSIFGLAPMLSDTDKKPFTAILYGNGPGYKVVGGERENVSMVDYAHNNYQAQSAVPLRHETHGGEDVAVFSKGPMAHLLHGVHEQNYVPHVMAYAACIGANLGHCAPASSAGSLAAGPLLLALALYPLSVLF

Sequence of G-protein coupled receptor 55 (Q9Y2T6 whole entry): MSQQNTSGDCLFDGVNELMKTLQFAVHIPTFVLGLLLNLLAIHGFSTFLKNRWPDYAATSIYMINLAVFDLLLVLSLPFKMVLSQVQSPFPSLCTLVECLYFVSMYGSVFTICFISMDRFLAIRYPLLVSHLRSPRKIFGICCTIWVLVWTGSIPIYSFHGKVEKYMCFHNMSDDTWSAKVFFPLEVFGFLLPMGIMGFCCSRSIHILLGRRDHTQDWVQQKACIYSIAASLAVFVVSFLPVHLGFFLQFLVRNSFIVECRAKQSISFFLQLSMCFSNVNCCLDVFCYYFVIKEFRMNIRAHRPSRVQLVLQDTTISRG

IC50 [8]	IC50 [9]	IC50 [10]	SMILES	IC50 [1]	IC50 [2]	EC50 [3]	IC50 [4]	EC50 [5]	IC50 [6]	EC50 [7]
			Cc1nc(N2CCN(C(=O)c3ccco3)CC2)c2c3c(sc2n1)CCCC3	1.58 µM (active)	> 32 µM (inactive)	> 32 µM (inactive)	> 32 µM (inactive)	> 32 µM (inactive)	> 32 µM (inactive)	> 32 µM (inactive)
13.3 µM (active)	4.32 µM (active)	35.8 µM (active)	CCn1c(SCC(=O)c2ccc(O)c(O)c2)nnc1-c1ccccc1							
